How the values were obtained:
[1] = system: glattmuskuläre coronare Muscarinrezeptoren; assay: Isolated perfused Langendorff heart: antagonism of the carbachol effect on coronary flow (CF); design: species or system Wistar Ratten; conditions: for Coronarselektivität (Affinität für coronare vs. frequenzbeeinflussende M-Rezeptoren): comparison of CF and HR effects in the isolated rat heart; for pA₂-Werte Coronarflußeffekt CF: isolated rat heart, agonist Carbachol bolus 10⁻⁶ bis 10⁻²M, antagonist in perfusate, constant pressure 70 mm Hg
Protocol: (§1) Meßparameter sind Herzfrequenz und Coronarfluß.
(§2) Männliche Wistar Ratten mit einem Körpergewicht zwischen 300 und 350 g wurden mit Pentobarbital (70 mg/kg i.p.) anaesthe siert. […] Die Herzen wurden über die Aorta mit Krebs-Henseleit-Puffer (KHB) retograd bei einem konstanten Druck von 70 mm Hg perfundiert. Die Zusammensetzung des KHB betrug in mM: Kochsalz 114, Kaliumchlorid 4,7, Natriumbicarbonat 23,6, Kaliumdihydrogenphosphat 1,2, Magnesiumsulfat 1,1, Calziumchlorid 2,5. 11 mM Glucose wurden als Substrat beigefügt. Die Herzfrequenz (HR) wurde durch einen Tachographen (IFD, Mülheim) gemessen, der Coronarfluß (CF) wurde mittels eines elektromagnetischen Flowmeters (IFD, Mülheim) in Verbindung mit einer Sonde in dem zuführenden Teil der Aorta bestimmt.
(§3) Nach einer 15-minütigen Stabilisierungsphase in allen Experimenten wurde die erste Dosis-Wirkungs-Kurve erstellt. Dies geschah durch die Gabe von dem Fluß angepaßten Bolus-Injektionen (0,01 ml/10 ml CF) mit ansteigenden Dosierungen von Carbachol (10⁻⁶ bis 10⁻²M). Danach wurde die niedrigste Dosis des Antagonisten dem Perfusat beigegeben und die Dosis-Wirkungs-Kurve erneut aufgenommen. Darauffolgend gab man eine höhere Dosis des Antagonisten zu und es wurde der Einfluß von Carbachol auf den Coronarfluß (CF) und die Herzfrequenz (HF) erneut durch die Aufnahme von Dosis-Wirkungs-Kurven quantifiziert.

[2] = target: T1, frequenzbeeinflussende M-Rezeptoren (Rattus norvegicus, UniProt P10980); assay: Isolated perfused Langendorff heart: antagonism of the negative chronotropic carbachol effect on heart rate (HR/HF); design: species or system Wistar Ratten; conditions: isolated spontaneously beating rat heart, agonist Carbachol bolus 10⁻⁶ bis 10⁻²M, antagonist in perfusate; read-out: pA₂-Werte Herzfrequenz-Effekt HR (converted)
T1 construct: danach das Herz entnommen; from tissue; host or cells: isolated perfused Langendorff heart of male Wistar rats
T1 sequence (P10980 1-466): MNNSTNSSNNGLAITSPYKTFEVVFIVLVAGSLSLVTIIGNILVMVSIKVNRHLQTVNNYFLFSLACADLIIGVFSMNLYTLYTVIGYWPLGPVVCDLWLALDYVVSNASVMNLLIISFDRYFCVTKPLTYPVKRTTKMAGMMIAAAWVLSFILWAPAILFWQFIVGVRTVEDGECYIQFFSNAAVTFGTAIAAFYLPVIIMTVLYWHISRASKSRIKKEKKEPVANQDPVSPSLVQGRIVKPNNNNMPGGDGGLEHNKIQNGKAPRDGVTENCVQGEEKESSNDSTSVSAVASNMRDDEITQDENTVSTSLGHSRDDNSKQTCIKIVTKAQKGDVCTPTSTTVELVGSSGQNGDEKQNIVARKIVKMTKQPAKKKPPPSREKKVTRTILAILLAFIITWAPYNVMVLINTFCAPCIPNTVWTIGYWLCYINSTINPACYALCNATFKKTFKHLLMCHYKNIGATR
Protocol: as §1, §2, §3

Compound | Coronarselektivität (Affinität für coronare vs. frequenzbeeinflussende M-Rezeptoren) [1] | pA₂-Werte Coronarflußeffekt CF [1] | Kb [2] [µM] | Kb ([1]; read-out: pA₂-Werte Coronarflußeffekt CF (converted)) [µM]
CN1CCC(CC(=O)N2c3ccccc3C(=O)Nc3cccc(Cl)c32)CC1 (racemic) [Substanz I, 6-Chlor-5,10-dihydro-5-[(1-methyl-4-piperidinyl)acetyl]-11H-dibenzo[b,e][1,4]diazepin-11-on] | höhere Affinität für coronare als für frequenzbeeinflussende M-Rezeptoren | 7,9 ± 0,2 | 0.0501 | 
CN1CCC(CC(=O)N2c3ccccc3C(=O)Nc3cccc(Cl)c32)CC1 (single isomer, unassigned) [Substanz II, (+)-6-Chlor-5,10-dihydro-5-[(1-methyl-4-piperidinyl)acetyl]-11H-dibenzo[b,e][1,4]diazepin-11-on] | höhere Affinität für coronare als für frequenzbeeinflussende M-Rezeptoren | 8,2 ± 0,1 | 0.0316 | 
CN1C2CCC1CC(OC(=O)C(CO)c1ccccc1)C2 (racemic) [Atropin, reference compound] |  |  |  | 0.000631

Reference: patent EP0316690A2, “Agent for the treatment of ischemic heart diseases” (Dr. Karl Thomae GmbH, priority 1987, dated 1989)
